Consider 27 compounds from US12065399B2, “Arylsulfonamide derivatives” (Hoffmann-La Roche Inc., priority 2019, dated 2024).

Structures can show the parent of a compound that is named as a salt.

Chain of human mGlu4 receptor (Q14833 33-912): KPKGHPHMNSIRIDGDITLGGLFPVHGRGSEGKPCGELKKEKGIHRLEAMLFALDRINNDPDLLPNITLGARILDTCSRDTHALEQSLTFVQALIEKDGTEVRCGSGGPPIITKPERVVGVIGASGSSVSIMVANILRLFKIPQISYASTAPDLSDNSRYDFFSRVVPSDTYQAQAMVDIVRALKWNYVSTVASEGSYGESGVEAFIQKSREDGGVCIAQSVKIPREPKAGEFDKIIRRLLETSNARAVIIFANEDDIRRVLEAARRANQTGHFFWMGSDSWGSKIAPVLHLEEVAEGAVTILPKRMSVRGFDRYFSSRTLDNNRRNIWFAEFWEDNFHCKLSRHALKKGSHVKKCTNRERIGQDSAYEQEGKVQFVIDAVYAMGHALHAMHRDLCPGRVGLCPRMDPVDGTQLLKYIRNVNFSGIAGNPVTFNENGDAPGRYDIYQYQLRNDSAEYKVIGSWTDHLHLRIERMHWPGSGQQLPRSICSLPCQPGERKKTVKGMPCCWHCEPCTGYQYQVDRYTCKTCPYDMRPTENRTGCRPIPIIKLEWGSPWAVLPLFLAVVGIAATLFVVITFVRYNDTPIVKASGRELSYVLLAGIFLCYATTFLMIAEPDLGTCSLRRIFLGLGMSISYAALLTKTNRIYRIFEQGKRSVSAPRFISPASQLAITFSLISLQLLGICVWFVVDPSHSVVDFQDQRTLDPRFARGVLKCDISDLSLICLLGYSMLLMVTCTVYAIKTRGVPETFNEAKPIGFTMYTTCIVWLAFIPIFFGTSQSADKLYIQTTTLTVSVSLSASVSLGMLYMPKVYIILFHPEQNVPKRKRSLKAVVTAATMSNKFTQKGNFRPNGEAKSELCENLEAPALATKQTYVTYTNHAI

The experiment deals with human mGlu4 receptor (Homo sapiens (Human), UniProt Q14833). In words: Intracellular Ca2+ mobilization assay (FLIPR), mGlu4 NAM. The experiment is classed as cell-based. The following applies: HEK-293 cells stably transfected with human mGlu4; inhibition of L-AP4 (EC80) response; IC50. Here is the method:
2.1) Intracellular Ca^2+ Mobilization Assay (FLIPR)
A monoclonal HEK-293 cell line stably transfected with a cDNA encoding for the human mGlu4 receptor was generated. Cells were cultured according to standard protocols (Freshney, 2000) in Dulbecco's Modified Eagle Medium with high glucose supplemented with 1 mM glutamine, 10% (vol/vol) heat-inactivated bovine calf serum, penicillin/streptomycin, 50 μg/ml hygromycin and 15 μg/ml blasticidin (all cell culture reagents and antibiotics from Invitrogen, Basel, Switzerland).
About 24 hrs before an experiment, 5×10^4 cells/well were seeded in poly-D-lysine coated, black/clear-bottomed 96-well plates. The cells were loaded with 2.5 μM Fluo-4AM in loading buffer (1×HBSS, 20 mM HEPES) for 1 hr at 37° C. and washed five times with loading buffer. The cells were transferred into a Functional Drug Screening System 7000 (Hamamatsu, Paris, France), and 11 half logarithmic serial dilutions of test compound at 37° C. were added and the cells were incubated for 10-30 min. with on-line recording of fluorescence. Following this pre-incubation step, the agonist (2S)-2-amino-4-phosphonobutanoic acid (L-AP4) was added to the cells at a concentration corresponding to EC80 with on-line recording of fluorescence; in order to account for day-to-day variations in the responsiveness of cells, the EC80 of L-AP4 was determined immediately ahead of each experiment by recording of a full dose-response curve of L-AP4.
Responses were measured as peak increase in fluorescence minus basal (i.e. fluorescence without addition of L-AP4), normalized to the maximal stimulatory effect obtained with saturating concentrations of L-AP4. Graphs were plotted with the % maximal stimulatory using XLfit, a curve fitting program that iteratively plots the data using Levenburg Marquardt algorithm. The single site competition analysis equation used was y=A+((B-A)/(1+((x/C)D))), where y is the % maximal stimulatory effect, A is the minimum y, B is the maximum y, C is the IC50, x is the log 10 of the concentration of the competing compound and D is the slope of the curve (the Hill Coefficient). From these curves the IC50 (drug concentration at which 50% of the receptor activation achieved from the addition of L-AP4 in the experiment was inhibited), the Hill coefficient as well as the maximal response in % of the maximal stimulatory effect obtained with saturating concentrations of L-AP4 were calculated (see FIG. 1).
The EC50 is the concentration needed to bring the measured effect to its halfway point. For `O=S(=O)(Nc1c(F)cc(C#Cc2ccccc2)cc1F)c1cccc(Cl)c1` [Example 8, 3-chloro-N-[2,6-difluoro-4-(2-phenylethynyl)phenyl]benzenesulfonamide], the concentration for a half-maximal effect (EC50) stood at 5920 nM. The value for `Cc1c(C(F)(F)F)cccc1S(=O)(=O)Nc1c(F)cc(C#Cc2ccccc2)cc1F` [Example 28, N-[2,6-difluoro-4-(2-phenylethynyl)phenyl]-2-methyl-3-(trifluoromethyl)benzenesulfonamide] was 1950 nM; that for `Cc1cccc(S(=O)(=O)Nc2c(F)cc(C#Cc3ccccc3)cc2F)c1Cl` [Example 16, 2-chloro-N-[2,6-difluoro-4-(2-phenylethynyl)phenyl]-3-methyl-benzenesulfonamide] was 1560 nM. The value for `Cc1cc(F)c(C)c(S(=O)(=O)Nc2c(F)cc(C#Cc3cccc(Cl)c3)cc2F)c1` [Example 48, N-[4-[2-(3-chlorophenyl)ethynyl]-2,6-difluoro-phenyl]-3-fluoro-2,5-dimethyl-benzenesulfonamide] was 1250 nM; that for `Cc1c(Cl)cccc1S(=O)(=O)Nc1c(F)cc(C#Cc2ccccc2)cc1F` [Example 20, 3-chloro-N-[2,6-difluoro-4-(2-phenylethynyl)phenyl]-2-methyl-benzenesulfonamide] was 1080 nM. As for `O=S(=O)(Nc1c(F)cc(C#Cc2ccccc2)cc1F)c1ccc(Cl)cc1Cl` [Example 11, 2,4-dichloro-N-[2,6-difluoro-4-(2-phenylethynyl)phenyl]benzenesulfonamide], the figure is 15700 nM; as for `Cc1c(Cl)cccc1S(=O)(=O)Nc1c(F)cc(C#Cc2cccc(F)c2)cc1F` [Example 43, 3-chloro-N-[2,6-difluoro-4-[2-(3-fluorophenyl)ethynyl]phenyl]-2-methyl-benzenesulfonamide], 1270 nM. Compound `COc1cccc(C#Cc2cc(F)c(NS(=O)(=O)c3cccc(Cl)c3C)c(F)c2)c1` [Example 42, 3-chloro-N-[2,6-difluoro-4-[2-(3-methoxyphenyl)ethynyl]phenyl]-2-methyl-benzenesulfonamide] registered a concentration giving a half-maximal response (EC50) of 1320 nM. This EC50 and that of the compound before are within 1.5-fold of each other. As for `Cn1nccc1S(=O)(=O)Nc1c(F)cc(C#Cc2cncc(F)c2)cc1F` [Example 39, N-[2,6-difluoro-4-[2-(5-fluoro-3-pyridyl)ethynyl]phenyl]-2-methyl-pyrazole-3-sulfonamide; 2,2,2-trifluoroacetic acid salt], the figure is 10500 nM. Regarding `Cc1ccc(Cl)c(S(=O)(=O)Nc2c(F)cc(C#Cc3ccccc3)cc2F)c1` [Example 19, 2-chloro-N-[2,6-difluoro-4-(2-phenylethynyl)phenyl]-5-methyl-benzenesulfonamide], a half-maximal response (EC50) required 1260 nM.

In turn, `O=S(=O)(Nc1c(F)cc(C#Cc2ccccc2)cc1F)c1cccc(Cl)c1Cl` [Example 2, 2,3-dichloro-N-[2,6-difluoro-4-(2-phenylethynyl)phenyl]benzenesulfonamide] registered a 50% effective concentration (EC50) of 1680 nM. As for `COc1cccc(C#Cc2cc(F)c(NS(=O)(=O)c3cc(C)cc(F)c3C)c(F)c2)c1` [Example 47, N-[2,6-difluoro-4-[2-(3-methoxyphenyl)ethynyl]phenyl]-3-fluoro-2,5-dimethyl-benzenesulfonamide], the EC50 is 1050 nM. This EC50 is about 1.6-fold lower than that of the compound before. On to `O=S(=O)(Nc1c(F)cc(C#Cc2cncc(F)c2)cc1F)c1cccc(Cl)c1Cl` [Example 13, 2,3-dichloro-N-[2,6-difluoro-4-[2-(5-fluoro-3-pyridyl)ethynyl]phenyl]benzenesulfonamide], for which the 50% effective concentration (EC50) turned out to be 556 nM.

On to `O=S(=O)(Nc1c(F)cc(C#Cc2ccccc2)cc1F)c1cc(Cl)ccc1Cl` [Example 4, 2,5-dichloro-N-[2,6-difluoro-4-(2-phenylethynyl)phenyl]benzenesulfonamide], for which the 50% effective concentration (EC50) was determined as 3430 nM. As for `Cc1cc(Cl)c(C)c(S(=O)(=O)Nc2c(F)cc(C#Cc3cncc(F)c3)cc2F)c1` [Example 54, 3-chloro-N-(2,6-difluoro-4-((5-fluoropyridin-3-yl)ethynyl)phenyl)-2,5-dimethylbenzenesulfonamide 2,2,2-trifluoroacetate], the figure is 918 nM; as for `Cc1cccc(C#Cc2cc(F)c(NS(=O)(=O)c3cc(C)cc(F)c3C)c(F)c2)c1` [Example 51, N-[2,6-difluoro-4-[2-(m-tolyl)ethynyl]phenyl]-3-fluoro-2,5-dimethyl-benzenesulfonamide], 1410 nM. The value for `Cc1nn(C)cc1S(=O)(=O)Nc1c(F)cc(C#Cc2ccccc2)cc1F` [Example 41, N-[2,6-difluoro-4-(2-phenylethynyl)phenyl]-1,3-dimethyl-pyrazole-4-sulfonamide; 2,2,2-trifluoroacetic acid salt] was 9350 nM.

Take `O=S(=O)(Nc1c(F)cc(C#Cc2cccnc2)cc1F)c1ccccc1Cl` [Example 9, 2-chloro-N-[2,6-difluoro-4-[2-(3-pyridyl)ethynyl]phenyl]benzenesulfonamide]: the EC50 was determined as 14200 nM. The value for `Cc1cc(F)c(C)c(S(=O)(=O)Nc2c(F)cc(C#Cc3cccc(O)c3)cc2F)c1` [Example 61, N-[2,6-difluoro-4-[2-(3-hydroxyphenyl)ethynyl]phenyl]-3-fluoro-2,5-dimethyl-benzenesulfonamide] was 992 nM. The value for `Cc1cc(F)c(C)c(S(=O)(=O)Nc2c(F)cc(C#Cc3cccnc3)cc2F)c1` [Example 50, N-[2,6-difluoro-4-[2-(3-pyridyl)ethynyl]phenyl]-3-fluoro-2,5-dimethyl-benzenesulfonamide] was 274 nM; that for `O=S(=O)(Nc1c(F)cc(C#Cc2ccccc2)cc1F)c1ccccc1C(F)(F)F` [Example 3, N-[2,6-difluoro-4-(2-phenylethynyl)phenyl]-2-(trifluoromethyl)benzenesulfonamide] was 2810 nM; that for `Cc1ncccc1S(=O)(=O)Nc1c(F)cc(C#Cc2ccccc2)cc1F` [Example 29, N-[2,6-difluoro-4-(2-phenylethynyl)phenyl]-2-methyl-pyridine-3-sulfonamide] was 2890 nM.

`Cc1cc(F)c(C)c(S(=O)(=O)Nc2c(F)cc(C#Cc3cncc(F)c3)cc2F)c1` [Example 38, N-[2,6-difluoro-4-[2-(5-fluoro-3-pyridyl)ethynyl]phenyl]-3-fluoro-2,5-dimethyl-benzenesulfonamide; 2,2,2-trifluoroacetic acid salt]: a half-maximal response (EC50) required 434 nM. The value for `Cc1c(Cl)cccc1S(=O)(=O)Nc1c(F)cc(C#Cc2cncc(F)c2)cc1F` [Example 52, 3-chloro-N-[2,6-difluoro-4-[2-(5-fluoro-3-pyridyl)ethynyl]phenyl]-2-methyl-benzenesulfonamide] was 761 nM.

`Cc1c(F)cccc1S(=O)(=O)Nc1c(F)cc(C#Cc2cncc(F)c2)cc1F` [Example 57, N-[2,6-difluoro-4-[2-(5-fluoro-3-pyridyl)ethynyl]phenyl]-3-fluoro-2-methyl-benzenesulfonamide; 2,2,2-trifluoroacetic acid] came in with a 50% effective concentration (EC50) of 575 nM. The compound `Cc1cncc(C#Cc2cc(F)c(NS(=O)(=O)c3cccc(Cl)c3C)c(F)c2)c1` [Example 56, 3-chloro-N-[2,6-difluoro-4-[2-(5-methyl-3-pyridyl)ethynyl]phenyl]-2-methyl-benzenesulfonamide; 2,2,2-trifluoroacetic acid] yielded an EC50 of 1470 nM. This EC50 lies about 2.6-fold higher than the previous one.

`COCc1c(Cl)cccc1S(=O)(=O)Nc1c(F)cc(C#Cc2ccccc2)cc1F` [Example 32, 3-chloro-N-[2,6-difluoro-4-(2-phenylethynyl)phenyl]-2-(methoxymethyl)benzenesulfonamide] returned an EC50 of 3880 nM.
